Experimental data published in patent publication US20180370912A1, “COMPOUNDS AND METHODS FOR TREATING DISEASES MEDIATED BY PROTEIN DISULFIDE ISOMERASE” (Beth Israel Deaconess Medical Center, Inc., priority 2017, published 2018).

What was measured:
tumor growth = settings: murine model ovarian cancer, Xu et al. 2012; cited from earlier work
ERp5 = target: T1, ERp5 (Homo sapiens, UniProt Q15084); test: Di-eosin-GSSG disulfide reductase assay; assay type: biochemical
T1 construct: recombinant His-tagged full-length ERp5, ERp72 and PDI domain fragments; His; made in house; host or cells: Escherichia coli Origami B (DE3), pET-15b
T1 sequence (Q15084 20-440): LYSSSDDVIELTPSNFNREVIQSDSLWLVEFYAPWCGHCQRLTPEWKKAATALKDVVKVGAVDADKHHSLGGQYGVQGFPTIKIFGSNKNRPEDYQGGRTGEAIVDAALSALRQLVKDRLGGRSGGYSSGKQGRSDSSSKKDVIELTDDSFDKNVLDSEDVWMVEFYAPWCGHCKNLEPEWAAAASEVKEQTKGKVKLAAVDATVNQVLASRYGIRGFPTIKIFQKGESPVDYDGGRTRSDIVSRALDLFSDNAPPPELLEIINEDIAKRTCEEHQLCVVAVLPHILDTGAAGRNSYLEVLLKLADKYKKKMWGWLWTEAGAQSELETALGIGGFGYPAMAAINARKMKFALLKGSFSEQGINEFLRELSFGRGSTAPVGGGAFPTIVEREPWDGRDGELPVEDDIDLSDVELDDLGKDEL
Method: (§1) The probe di-eosin glutathione disulfide, di-eosin-GSSG, was prepared as previously described in Raturi, A., Vacratsis, P. O., Seslija, D., Lee, L. & Mutus, B., Biochem J 391, 351-357 (2005). Reductase activity of purified thiol isomerases and PDI domains was monitored in a 96-well fluorescence plate format. PDI, AGHA-PDI, ERpS, ERp57, ERp72 and PDI domains were assayed at 50 nM in the presence or absence of the indicated small molecules, peptides or cathepsin G. The assay included 100 mM potassium phosphate (pH 7.4) containing 2 mM EDTA, 5 μM DTT and 150 nM of the di-eosin GSSG probe. The increase in fluorescence was determined for 20 minutes by excitation at 520 nm and emission at 550 nm in a Synergy Biotek 4. The reduction of 150 nM di-eosin-GSSG by 5 μM DTT in the presence or absence of mentioned small molecules, peptides or proteins served as a negative control.

ERp57 = target: T2, ERp57 (Homo sapiens, UniProt P30101); test: Di-eosin-GSSG disulfide reductase assay; assay type: biochemical
T2 construct: FLAG; made in house; host or cells: Escherichia coli Origami B (DE3), pET-15b
T2 sequence (P30101 25-505): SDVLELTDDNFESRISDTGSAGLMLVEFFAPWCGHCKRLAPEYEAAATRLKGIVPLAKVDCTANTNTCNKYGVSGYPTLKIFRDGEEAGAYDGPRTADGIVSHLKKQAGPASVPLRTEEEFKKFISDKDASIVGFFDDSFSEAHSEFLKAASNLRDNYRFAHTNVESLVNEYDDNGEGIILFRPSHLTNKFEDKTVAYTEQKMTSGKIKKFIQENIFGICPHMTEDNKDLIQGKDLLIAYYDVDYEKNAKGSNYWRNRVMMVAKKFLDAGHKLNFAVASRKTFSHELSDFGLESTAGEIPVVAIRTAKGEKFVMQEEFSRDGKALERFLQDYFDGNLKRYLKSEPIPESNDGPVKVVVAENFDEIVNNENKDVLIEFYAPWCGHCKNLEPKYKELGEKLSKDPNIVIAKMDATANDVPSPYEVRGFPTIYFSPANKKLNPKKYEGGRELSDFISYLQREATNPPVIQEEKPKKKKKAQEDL
Method: as §1

ERp72 = target: T3, ERp72 (Homo sapiens, UniProt P13667); test: Di-eosin-GSSG disulfide reductase assay; assay type: biochemical
T3 construct: recombinant His-tagged full-length ERp5, ERp72 and PDI domain fragments; His; made in house; host or cells: Escherichia coli Origami B (DE3), pET-15b
T3 sequence (P13667 21-645): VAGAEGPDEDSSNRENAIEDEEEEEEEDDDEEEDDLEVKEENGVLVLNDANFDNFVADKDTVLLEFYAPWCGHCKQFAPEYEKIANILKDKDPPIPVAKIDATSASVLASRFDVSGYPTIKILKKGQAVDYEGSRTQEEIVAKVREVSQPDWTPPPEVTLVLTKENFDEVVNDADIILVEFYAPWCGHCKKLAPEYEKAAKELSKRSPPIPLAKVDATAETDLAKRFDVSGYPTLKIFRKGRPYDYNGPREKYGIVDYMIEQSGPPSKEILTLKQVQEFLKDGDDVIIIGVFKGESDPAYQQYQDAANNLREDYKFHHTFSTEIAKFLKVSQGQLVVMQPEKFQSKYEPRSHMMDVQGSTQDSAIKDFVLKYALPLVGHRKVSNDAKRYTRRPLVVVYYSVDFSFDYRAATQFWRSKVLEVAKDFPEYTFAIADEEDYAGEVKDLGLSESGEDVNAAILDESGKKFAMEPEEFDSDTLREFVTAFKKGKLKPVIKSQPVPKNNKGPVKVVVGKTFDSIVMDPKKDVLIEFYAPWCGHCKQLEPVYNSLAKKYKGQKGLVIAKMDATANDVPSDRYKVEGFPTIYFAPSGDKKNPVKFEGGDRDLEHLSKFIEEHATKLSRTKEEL
Method: as §1

[1] = target: T4, PDI mutant in which the CGHC motif is mutated to AGHA (Homo sapiens, UniProt P07237, C397A/C400A/C53A/C56A); test: Di-eosin-GSSG disulfide reductase assay, catalytically inactive mutant; assay type: biochemical; settings: FIG. 1c
T4 sequence (P07237 18-508 C53A/C56A/C397A/C400A): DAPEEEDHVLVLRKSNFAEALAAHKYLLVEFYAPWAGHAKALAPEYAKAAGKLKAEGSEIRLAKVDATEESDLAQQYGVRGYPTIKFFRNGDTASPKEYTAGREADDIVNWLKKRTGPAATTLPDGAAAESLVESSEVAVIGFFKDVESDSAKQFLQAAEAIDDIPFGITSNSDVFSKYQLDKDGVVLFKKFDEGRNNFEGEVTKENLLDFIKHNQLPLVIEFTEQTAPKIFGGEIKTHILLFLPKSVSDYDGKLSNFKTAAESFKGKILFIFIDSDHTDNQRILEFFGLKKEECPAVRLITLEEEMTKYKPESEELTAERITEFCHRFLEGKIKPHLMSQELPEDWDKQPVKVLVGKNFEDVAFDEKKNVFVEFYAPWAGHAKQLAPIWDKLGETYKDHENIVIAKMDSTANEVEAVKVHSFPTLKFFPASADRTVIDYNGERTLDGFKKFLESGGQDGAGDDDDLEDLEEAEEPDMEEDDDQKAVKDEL
Method: as §1

| Structure (SMILES) | tumor growth (tumor growth) | cleavage of di-eosin-GSSG by ERp5 (catalytic activity) (ERp5) | cleavage of di-eosin-GSSG by ERp57 (catalytic activity) (ERp57) | cleavage of di-eosin-GSSG by ERp72 (catalytic activity) (ERp72) | augmentation of activity of catalytically inactive PDI (AGHA) [1] |
| --- | --- | --- | --- | --- | --- |
| C#CC(=O)N(c1ccc(OC)cc1OC)C(C(=O)NCC(=O)OCC)c1cccs1 (centres unmarked) [PACMA-31, N-(2,4-Dimethoxyphenyl)-N-(1-oxo-2-propyn-1-yl)-2-(2-thienyl)glycyl-glycine ethyl ester, reference compound] | impairs tumor growth | – | – | – | – |
| CCOC(=O)c1c(CNCCN(CC)CC)n(-c2ccccc2)c2cc(Br)c(O)cc12 [bepristat 2a] | – | did not augment activity | did not augment activity | did not augment activity | fails to augment activity |
